# Assay results taken from PubChem BioAssay AID2060887 (Molecular Pharmacology Branch, DTP, NCI, 2025).
# Test system: 782815-120-R-J1-PDC complex spheroid viability
# Experiment: Anticancer human tumor 782815-120-R-J1-PDC patient-derived colon adenocarcinoma cell line growth inhibition [RAS]
# Settings: for IC50: curve of first compound; for viability, T/C: stronger effect = lower value
# Procedure, shortened: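 Multi-cell-type spheroids: tumor cells plus HUVEC endothelial cells and mesenchymal stem cells. RAS-pathway inhibitors were combined with targeted agents, each dosed in half-log steps down from clinical Cmax, or from 10 microM when Cmax was unknown.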
# [1] = second compound 0.000949 µM, first compound 0.0316 µM
# [2] = second compound 0.000949 µM, first compound 0.1 µM
# [3] = second compound 0.000949 µM, first compound 0.316 µM
# [4] = second compound 0.000949 µM, first compound 1 µM
# [5] = second compound 0.000949 µM, first compound 3.16 µM
# [6] = second compound 0.000949 µM, first compound 10 µM
# [7] = second compound 0.003 µM, first compound 0.0316 µM
# [8] = second compound 0.003 µM, first compound 0.1 µM
# [9] = second compound 0.003 µM, first compound 0.316 µM
# [10] = second compound 0.003 µM, first compound 1 µM
# [11] = second compound 0.003 µM, first compound 3.16 µM
# [12] = second compound 0.003 µM, first compound 10 µM
# [13] = second compound 0.00949 µM, first compound 0.0316 µM
# [14] = second compound 0.00949 µM, first compound 0.1 µM
# [15] = second compound 0.00949 µM, first compound 0.316 µM
# [16] = second compound 0.00949 µM, first compound 1 µM
# [17] = second compound 0.00949 µM, first compound 3.16 µM
# [18] = second compound 0.00949 µM, first compound 10 µM
# [19] = second compound 0.03 µM, first compound 0.0316 µM
# [20] = second compound 0.03 µM, first compound 0.1 µM
# [21] = second compound 0.03 µM, first compound 0.316 µM
# [22] = second compound 0.03 µM, first compound 1 µM
# [23] = second compound 0.03 µM, first compound 3.16 µM
# [24] = second compound 0.03 µM, first compound 10 µM
# [25] = second compound 0.0949 µM, first compound 0.0316 µM
# [26] = second compound 0.0949 µM, first compound 0.1 µM
# [27] = second compound 0.0949 µM, first compound 0.316 µM
# [28] = second compound 0.0949 µM, first compound 1 µM
# [29] = second compound 0.0949 µM, first compound 3.16 µM
# [30] = second compound 0.0949 µM, first compound 10 µM
# [31] = second compound 0.3 µM, first compound 0.0316 µM
# [32] = second compound 0.3 µM, first compound 0.1 µM
# [33] = second compound 0.3 µM, first compound 0.316 µM
# [34] = second compound 0.3 µM, first compound 1 µM
# [35] = second compound 0.3 µM, first compound 3.16 µM
# [36] = second compound 0.3 µM, first compound 10 µM
# 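Note: spheroids exposed to compounds for 7 days before reading.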
# 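Throughout, for viability, T/C: 100% = DMSO vehicle control viability.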
smiles,measurement,setting,value
CC(Nc1ccc2c(c1)OCCn1cc(N3C(=O)OCC3C(F)F)nc1-2)C(N)=O (stereo unspecified) + CCn1c(-c2cc(N3CCN(C)CC3)cnc2C(C)OC)c2c3cc(ccc31)-c1csc(n1)CC(NC(=O)C1CC1C)C(=O)N1CCCC(N1)C(=O)OCC(C)(C)C2,IC50,second compound 0.000949 µM,> 10000 nM
same,IC50,second compound 0.003 µM,195 nM
same,IC50,second compound 0.00949 µM,< 31.6 nM
same,IC50,second compound 0.03 µM,< 31.6 nM
same,IC50,second compound 0.0949 µM,< 31.6 nM
same,IC50,second compound 0.3 µM,< 31.6 nM
same,"viability, T/C",[1],75.1%
same,"viability, T/C",[2],73.5%
same,"viability, T/C",[3],76%
same,"viability, T/C",[4],62.9%
same,"viability, T/C",[5],73.8%
same,"viability, T/C",[6],78.5%
same,"viability, T/C",[7],53.1%
same,"viability, T/C",[8],54.9%
same,"viability, T/C",[9],46.4%
same,"viability, T/C",[10],47.5%
same,"viability, T/C",[11],45.1%
same,"viability, T/C",[12],51.8%
same,"viability, T/C",[13],29.8%
same,"viability, T/C",[14],31.2%
same,"viability, T/C",[15],27.9%
same,"viability, T/C",[16],24.9%
same,"viability, T/C",[17],24.1%
same,"viability, T/C",[18],25.3%
same,"viability, T/C",[19],19.8%
same,"viability, T/C",[20],18.4%
same,"viability, T/C",[21],15%
same,"viability, T/C",[22],15.6%
same,"viability, T/C",[23],16.2%
same,"viability, T/C",[24],13.1%
same,"viability, T/C",[25],15.4%
same,"viability, T/C",[26],15.1%
same,"viability, T/C",[27],11.4%
same,"viability, T/C",[28],11.5%
same,"viability, T/C",[29],13.5%
same,"viability, T/C",[30],11.9%
same,"viability, T/C",[31],15.6%
same,"viability, T/C",[32],13%
same,"viability, T/C",[33],10.1%
same,"viability, T/C",[34],11.8%
same,"viability, T/C",[35],11.9%
same,"viability, T/C",[36],11.8%
CC1(O)CCCC1n1c(=O)c(C(F)F)cc2cnc(NC3CCN(S(C)(=O)=O)CC3)nc21 (stereo unspecified) + CCn1c(-c2cc(N3CCN(C)CC3)cnc2C(C)OC)c2c3cc(ccc31)-c1csc(n1)CC(NC(=O)C1CC1C)C(=O)N1CCCC(N1)C(=O)OCC(C)(C)C2,IC50,second compound 0.000949 µM,3340 nM
same,IC50,second compound 0.003 µM,< 31.6 nM
same,IC50,second compound 0.00949 µM,< 31.6 nM
same,IC50,second compound 0.03 µM,< 31.6 nM
same,IC50,second compound 0.0949 µM,< 31.6 nM
same,IC50,second compound 0.3 µM,< 31.6 nM
same,"viability, T/C",[1],58.6%
same,"viability, T/C",[2],48.5%
same,"viability, T/C",[3],45%
same,"viability, T/C",[4],53.4%
same,"viability, T/C",[5],52.9%
same,"viability, T/C",[6],17%
same,"viability, T/C",[7],40.2%
same,"viability, T/C",[8],45.4%
same,"viability, T/C",[9],41.3%
same,"viability, T/C",[10],41.8%
same,"viability, T/C",[11],39.1%
same,"viability, T/C",[12],15.1%
same,"viability, T/C",[13],26.1%
same,"viability, T/C",[14],28.3%
same,"viability, T/C",[15],22.4%
same,"viability, T/C",[16],26.3%
same,"viability, T/C",[17],30%
same,"viability, T/C",[18],8.61%
same,"viability, T/C",[19],16.6%
same,"viability, T/C",[20],17.6%
same,"viability, T/C",[21],17.4%
same,"viability, T/C",[22],15.8%
same,"viability, T/C",[23],22.4%
same,"viability, T/C",[24],4.67%
same,"viability, T/C",[25],12.4%
same,"viability, T/C",[26],13.8%
same,"viability, T/C",[27],13.6%
same,"viability, T/C",[28],13.5%
same,"viability, T/C",[29],18.5%
same,"viability, T/C",[30],5.05%
same,"viability, T/C",[31],14.8%
same,"viability, T/C",[32],12.7%
same,"viability, T/C",[33],13.9%
same,"viability, T/C",[34],15%
same,"viability, T/C",[35],18.2%
same,"viability, T/C",[36],4.68%
Nc1ccn(C2OC(CO)C(O)C2(F)F)c(=O)n1 (stereo unspecified) + C=CC(=O)N1CCN(c2nc(OCC3CCCN3C)nc3c(F)c(-c4nc(N)cc(C)c4C(F)(F)F)c(Cl)cc23)C(C)C1,IC50,second compound 0.00316 µM,62.7 nM
same,IC50,second compound 0.01 µM,53.2 nM
same,IC50,second compound 0.0316 µM,58.9 nM
same,IC50,second compound 0.1 µM,53.6 nM
same,IC50,second compound 0.316 µM,60.4 nM
same,IC50,second compound 1 µM,61.4 nM
same,"viability, T/C","second compound 0.00316 µM, first compound 0.00316 µM",90.9%
same,"viability, T/C","second compound 0.00316 µM, first compound 0.01 µM",81.2%
same,"viability, T/C","second compound 0.00316 µM, first compound 0.0316 µM",56.9%
same,"viability, T/C","second compound 0.00316 µM, first compound 0.1 µM",46.9%
same,"viability, T/C","second compound 0.00316 µM, first compound 0.316 µM",24.7%
same,"viability, T/C","second compound 0.00316 µM, first compound 1 µM",19.1%
same,"viability, T/C","second compound 0.01 µM, first compound 0.00316 µM",93.9%
same,"viability, T/C","second compound 0.01 µM, first compound 0.01 µM",82%
same,"viability, T/C","second compound 0.01 µM, first compound 0.0316 µM",57.8%
same,"viability, T/C","second compound 0.01 µM, first compound 0.1 µM",40.7%
same,"viability, T/C","second compound 0.01 µM, first compound 0.316 µM",23.6%
same,"viability, T/C","second compound 0.01 µM, first compound 1 µM",21%
same,"viability, T/C","second compound 0.0316 µM, first compound 0.00316 µM",99%
same,"viability, T/C","second compound 0.0316 µM, first compound 0.01 µM",83.5%
same,"viability, T/C","second compound 0.0316 µM, first compound 0.0316 µM",57.9%
same,"viability, T/C","second compound 0.0316 µM, first compound 0.1 µM",43.6%
same,"viability, T/C","second compound 0.0316 µM, first compound 0.316 µM",27.1%
same,"viability, T/C","second compound 0.0316 µM, first compound 1 µM",21.7%
same,"viability, T/C","second compound 0.1 µM, first compound 0.00316 µM",93.3%
same,"viability, T/C","second compound 0.1 µM, first compound 0.01 µM",85.7%
same,"viability, T/C","second compound 0.1 µM, first compound 0.0316 µM",54.3%
same,"viability, T/C","second compound 0.1 µM, first compound 0.1 µM",41.3%
same,"viability, T/C","second compound 0.1 µM, first compound 0.316 µM",31.2%
same,"viability, T/C","second compound 0.1 µM, first compound 1 µM",21.5%
same,"viability, T/C","second compound 0.316 µM, first compound 0.00316 µM",92.3%
same,"viability, T/C","second compound 0.316 µM, first compound 0.01 µM",77.6%
same,"viability, T/C","second compound 0.316 µM, first compound 0.0316 µM",61.6%
same,"viability, T/C","second compound 0.316 µM, first compound 0.1 µM",40.9%
same,"viability, T/C","second compound 0.316 µM, first compound 0.316 µM",29.4%
same,"viability, T/C","second compound 0.316 µM, first compound 1 µM",21.4%
same,"viability, T/C","second compound 1 µM, first compound 0.00316 µM",92%
same,"viability, T/C","second compound 1 µM, first compound 0.01 µM",85.8%
same,"viability, T/C","second compound 1 µM, first compound 0.0316 µM",58.8%
same,"viability, T/C","second compound 1 µM, first compound 0.1 µM",43%
same,"viability, T/C","second compound 1 µM, first compound 0.316 µM",29.2%
same,"viability, T/C","second compound 1 µM, first compound 1 µM",23.1%
